Laboratory results reported in ChEMBL document CHEMBL1201862, “PubChem BioAssay data set” (2004).
Activity calls are given as the source filed them.

Key:
HeLa = assay: HeLa cell cytotoxicity, dose response, cytotoxicity control for MITF activator project, CellTiter-Glo luminescence, cherry-pick samples (AID 540259); type: functional, cell-based; conditions: Homo sapiens
Cytochrome P450 3A4 = Cytochrome P450 3A4 (Homo sapiens, UniProt P08684); conditions: Potency;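 note: confirmatory qHTS run detecting inhibitors and substrates of CYP3A4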
[1] = microbe, parasite or virus in culture; type: functional; conditions: Mycobacterium tuberculosis
[2] = molecular target: T1, Ubiquitin-conjugating enzyme E2 N (Homo sapiens, UniProt P61088); type: functional;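 note: Dose-response confirmation in a TR-FRET assay detecting UBC13-driven polyubiquitin chain formation, inhibition measured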
T1 sequence (P61088 whole entry): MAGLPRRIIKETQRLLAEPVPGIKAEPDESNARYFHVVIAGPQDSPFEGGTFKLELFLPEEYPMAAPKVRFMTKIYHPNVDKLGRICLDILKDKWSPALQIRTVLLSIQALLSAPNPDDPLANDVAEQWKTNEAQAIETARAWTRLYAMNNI

Vero = assay: cells; type: functional; conditions: Chlorocebus sabaeus
Estrogen receptor = molecular target: T2, Estrogen receptor (Homo sapiens, UniProt P03372);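 note: potency for inhibiting coactivator peptide recruitment to the receptor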
T2 sequence (P03372 whole entry): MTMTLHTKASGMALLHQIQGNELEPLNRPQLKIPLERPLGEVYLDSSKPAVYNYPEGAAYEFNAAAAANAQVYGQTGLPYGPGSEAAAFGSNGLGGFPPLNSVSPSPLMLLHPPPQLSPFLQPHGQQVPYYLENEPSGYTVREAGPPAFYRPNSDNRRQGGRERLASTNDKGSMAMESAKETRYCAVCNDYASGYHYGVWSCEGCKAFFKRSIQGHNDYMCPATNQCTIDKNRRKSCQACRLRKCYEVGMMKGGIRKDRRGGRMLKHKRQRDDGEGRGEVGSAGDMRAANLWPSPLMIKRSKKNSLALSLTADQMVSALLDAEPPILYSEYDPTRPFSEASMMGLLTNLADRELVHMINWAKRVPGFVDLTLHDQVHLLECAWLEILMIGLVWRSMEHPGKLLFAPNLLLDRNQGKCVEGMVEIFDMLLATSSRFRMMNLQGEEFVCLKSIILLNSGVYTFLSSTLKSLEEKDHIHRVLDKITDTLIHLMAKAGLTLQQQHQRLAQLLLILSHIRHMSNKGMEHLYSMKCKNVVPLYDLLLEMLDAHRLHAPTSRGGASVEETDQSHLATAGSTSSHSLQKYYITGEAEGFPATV

Fatty acid synthase [3] = molecular target: T3, Fatty acid synthase (Homo sapiens, UniProt P49327); assay: FAS thioesterase domain inhibitors, dose response, biochemical, kinetic fluorescence intensity (AID 624326); type: functional;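 note: rate of fluorescence rise from hydrolysis of a fluorogenic O-methyl fluorescein ester substrate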
Fatty acid synthase [4] = molecular target: T3, Fatty acid synthase; assay: FAS thioesterase domain inhibitors, dose response, biochemical, endpoint fluorescence intensity, uHTS hits (AID 624327); type: functional;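 note: fluorescence from hydrolysis of an O-methyl fluorescein acyl ester substrate by the enzyme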
[5] = cytotoxicity toward NIH3T3 fibroblasts, dose response, counter-screen, cell-based, ATP luminescence, mouse fibroblasts (AID 2010); type: functional;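 note: cells exposed to compound for about 90 hours before reading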
INS1 = assay: beta cell apoptosis inhibitors, cytokine rescue, dose response, luminescence, retest (AID 449756); type: functional, cell-based; conditions: Rattus norvegicus, INS1;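 note: cell death triggered by IL-1 beta plus TNF-alpha plus IFN-gamma mixture; protective hits raise ATP signal compared with cytokine alone wells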
[6] = inhibitors of intracellular T. cruzi replication, confirmation, NIH3T3 host cells, beta-gal luminescence (AID 2044); type: functional, cell-based;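 note: intracellular parasites grown in NIH/3T3 mouse fibroblasts as host cells; luminescent beta-galactosidase reporter signal from transgenic T. cruzi replicating inside host cells; inhibitors lower the luminescence signal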
[7] = intracellular Trypanosoma cruzi inhibitors in host cells – cell-based, plate reader, cherry-pick samples, set 3, dose response (AID 651818); type: functional;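 note: compounds incubated with infected cells for about four days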
[8] = molecular target: T4, DNA repair and recombination protein RAD54-like (Homo sapiens, UniProt Q92698); assay: inhibitors of human RAD54 branch migration, confirmation, biochemical, fluorescence, cherry-picked samples, dose series (AID 651657); type: functional
T4 sequence (Q92698 whole entry): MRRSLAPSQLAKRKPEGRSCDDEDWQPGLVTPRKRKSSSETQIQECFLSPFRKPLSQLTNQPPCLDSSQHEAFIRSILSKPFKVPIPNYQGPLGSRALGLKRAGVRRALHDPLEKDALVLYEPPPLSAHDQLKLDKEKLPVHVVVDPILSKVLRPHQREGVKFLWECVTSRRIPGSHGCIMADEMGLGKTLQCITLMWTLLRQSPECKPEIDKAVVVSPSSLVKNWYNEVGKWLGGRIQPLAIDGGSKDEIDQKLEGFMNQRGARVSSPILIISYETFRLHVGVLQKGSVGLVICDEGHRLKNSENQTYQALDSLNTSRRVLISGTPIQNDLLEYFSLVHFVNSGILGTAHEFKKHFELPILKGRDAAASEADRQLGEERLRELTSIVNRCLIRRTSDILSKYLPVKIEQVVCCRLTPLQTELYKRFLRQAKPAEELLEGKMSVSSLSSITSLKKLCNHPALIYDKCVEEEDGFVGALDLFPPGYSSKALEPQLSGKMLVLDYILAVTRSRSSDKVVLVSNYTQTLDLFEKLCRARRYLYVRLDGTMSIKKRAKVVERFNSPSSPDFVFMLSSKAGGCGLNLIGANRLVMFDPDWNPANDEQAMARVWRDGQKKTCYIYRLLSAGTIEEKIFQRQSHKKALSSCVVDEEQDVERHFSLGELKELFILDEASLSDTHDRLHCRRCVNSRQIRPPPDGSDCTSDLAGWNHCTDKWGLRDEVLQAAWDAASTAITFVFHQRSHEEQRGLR

HEK293 [9] = assay: cells; type: functional, cell-based; conditions: Homo sapiens
HEK293 [10] = assay: NOD2 signaling inhibitors in MDP-stimulated cells, cell-based, uHTS, luminescence (AID 2001); type: functional; conditions: Homo sapiens
HEK293 [11] = assay: cells; type: functional, cell-based; conditions: Homo sapiens; remark: listed apart in the source
HEK293 [12] = assay: cells; type: functional, cell-based; conditions: Homo sapiens; remark: listed apart in the source
[13] = molecular target: Nucleotide-binding oligomerization domain-containing protein 2 (Homo sapiens, UniProt Q9HC29); assay: NOD2 signaling inhibitors, cell-based, luminescence, uHTS, HEK293 (AID 1566); type: functional
HEK293 [14] = assay: NOD1 signaling inhibitors, primary screen, cell-based, luminescence, uHTS (AID 1578); type: functional; conditions: Homo sapiens
[15] = molecular target: T5, Adenosylmethionine-8-amino-7-oxononanoate aminotransferase (Mycobacterium tuberculosis, UniProt P9WQ81); assay: Mycobacterium tuberculosis BioA enzyme inhibitor Measured in Biochemical System Using Plate Reader - 2163-02_Inhibitor_Dose_CherryPick_Activity.; type: functional, Mycobacterium tuberculosis UT205
T5 sequence (P9WQ81 whole entry): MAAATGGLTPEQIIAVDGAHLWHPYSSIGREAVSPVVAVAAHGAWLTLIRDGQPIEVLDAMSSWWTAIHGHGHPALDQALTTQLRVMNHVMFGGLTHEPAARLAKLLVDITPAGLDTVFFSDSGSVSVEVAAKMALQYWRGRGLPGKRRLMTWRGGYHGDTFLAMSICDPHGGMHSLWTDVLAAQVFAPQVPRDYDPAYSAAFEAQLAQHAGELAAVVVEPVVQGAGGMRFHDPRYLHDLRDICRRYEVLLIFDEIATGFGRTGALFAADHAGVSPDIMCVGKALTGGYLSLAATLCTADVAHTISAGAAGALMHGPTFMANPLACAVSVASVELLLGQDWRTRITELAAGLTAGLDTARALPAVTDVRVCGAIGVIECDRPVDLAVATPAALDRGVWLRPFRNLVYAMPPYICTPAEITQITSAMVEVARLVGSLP

T3 sequence (P49327 whole entry, the tested form may be a part): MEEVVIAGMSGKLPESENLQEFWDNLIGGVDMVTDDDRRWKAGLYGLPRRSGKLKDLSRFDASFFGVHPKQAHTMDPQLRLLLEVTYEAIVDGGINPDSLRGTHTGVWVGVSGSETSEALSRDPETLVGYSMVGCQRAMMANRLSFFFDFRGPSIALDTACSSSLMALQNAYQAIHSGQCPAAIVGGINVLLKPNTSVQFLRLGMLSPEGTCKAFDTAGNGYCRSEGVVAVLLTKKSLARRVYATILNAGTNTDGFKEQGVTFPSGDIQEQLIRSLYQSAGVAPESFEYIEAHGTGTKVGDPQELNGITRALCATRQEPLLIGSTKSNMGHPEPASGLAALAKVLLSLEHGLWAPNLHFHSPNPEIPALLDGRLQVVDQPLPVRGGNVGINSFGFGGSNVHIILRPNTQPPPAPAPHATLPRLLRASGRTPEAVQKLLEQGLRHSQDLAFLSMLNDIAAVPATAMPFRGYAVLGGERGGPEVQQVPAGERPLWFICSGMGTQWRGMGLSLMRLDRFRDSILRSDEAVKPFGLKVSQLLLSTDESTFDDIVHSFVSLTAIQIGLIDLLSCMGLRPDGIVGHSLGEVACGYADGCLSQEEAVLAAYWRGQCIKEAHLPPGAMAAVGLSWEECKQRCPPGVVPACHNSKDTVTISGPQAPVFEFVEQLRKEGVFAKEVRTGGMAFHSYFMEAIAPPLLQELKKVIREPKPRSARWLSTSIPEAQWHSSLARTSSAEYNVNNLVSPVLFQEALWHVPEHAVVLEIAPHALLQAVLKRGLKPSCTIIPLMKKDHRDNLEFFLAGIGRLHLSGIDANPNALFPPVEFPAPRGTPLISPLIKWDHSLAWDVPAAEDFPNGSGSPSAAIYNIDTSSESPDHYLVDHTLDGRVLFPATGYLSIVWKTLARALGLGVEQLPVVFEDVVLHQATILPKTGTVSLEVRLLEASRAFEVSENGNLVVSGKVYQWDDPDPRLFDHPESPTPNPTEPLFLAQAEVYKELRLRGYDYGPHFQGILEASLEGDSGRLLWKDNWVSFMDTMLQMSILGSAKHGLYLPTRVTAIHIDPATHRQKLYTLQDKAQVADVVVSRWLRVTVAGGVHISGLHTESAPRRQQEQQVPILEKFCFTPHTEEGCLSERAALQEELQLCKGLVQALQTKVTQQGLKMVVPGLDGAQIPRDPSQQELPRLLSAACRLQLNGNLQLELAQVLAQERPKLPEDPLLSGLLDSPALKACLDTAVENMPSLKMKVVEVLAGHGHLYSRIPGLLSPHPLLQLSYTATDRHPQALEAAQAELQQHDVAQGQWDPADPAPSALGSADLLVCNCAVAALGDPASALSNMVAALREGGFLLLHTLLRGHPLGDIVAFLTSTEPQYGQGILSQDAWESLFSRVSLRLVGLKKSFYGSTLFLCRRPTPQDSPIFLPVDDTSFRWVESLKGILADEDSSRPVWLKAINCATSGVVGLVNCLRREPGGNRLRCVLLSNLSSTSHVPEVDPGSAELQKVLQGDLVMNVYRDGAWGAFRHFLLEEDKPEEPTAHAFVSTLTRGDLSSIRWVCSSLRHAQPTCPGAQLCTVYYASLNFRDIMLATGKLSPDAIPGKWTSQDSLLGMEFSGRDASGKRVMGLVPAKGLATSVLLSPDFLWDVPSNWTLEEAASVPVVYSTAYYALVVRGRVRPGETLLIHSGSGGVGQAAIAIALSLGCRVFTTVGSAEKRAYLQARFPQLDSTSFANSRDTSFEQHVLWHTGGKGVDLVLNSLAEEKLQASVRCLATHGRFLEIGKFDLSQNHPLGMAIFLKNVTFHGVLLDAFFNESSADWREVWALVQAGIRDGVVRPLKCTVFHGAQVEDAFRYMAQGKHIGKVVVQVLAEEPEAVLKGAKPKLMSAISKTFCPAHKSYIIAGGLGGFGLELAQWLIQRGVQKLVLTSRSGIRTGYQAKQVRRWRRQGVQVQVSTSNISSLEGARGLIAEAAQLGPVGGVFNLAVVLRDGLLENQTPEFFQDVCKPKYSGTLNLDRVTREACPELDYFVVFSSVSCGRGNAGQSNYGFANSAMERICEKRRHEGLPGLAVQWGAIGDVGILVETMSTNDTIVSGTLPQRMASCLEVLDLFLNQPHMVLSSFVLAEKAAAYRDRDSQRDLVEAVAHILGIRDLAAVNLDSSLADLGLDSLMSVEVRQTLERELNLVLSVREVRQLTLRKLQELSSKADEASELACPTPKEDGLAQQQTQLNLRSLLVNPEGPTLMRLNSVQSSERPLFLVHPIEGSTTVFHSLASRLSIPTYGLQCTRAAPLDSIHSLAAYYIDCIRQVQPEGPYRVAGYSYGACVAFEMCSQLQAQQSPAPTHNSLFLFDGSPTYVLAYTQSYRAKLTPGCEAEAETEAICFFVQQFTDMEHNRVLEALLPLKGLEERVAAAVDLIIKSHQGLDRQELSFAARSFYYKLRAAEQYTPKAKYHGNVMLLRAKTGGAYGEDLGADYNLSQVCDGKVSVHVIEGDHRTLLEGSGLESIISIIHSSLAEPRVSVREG
Cytochrome P450 3A4, sequence (P08684 whole entry): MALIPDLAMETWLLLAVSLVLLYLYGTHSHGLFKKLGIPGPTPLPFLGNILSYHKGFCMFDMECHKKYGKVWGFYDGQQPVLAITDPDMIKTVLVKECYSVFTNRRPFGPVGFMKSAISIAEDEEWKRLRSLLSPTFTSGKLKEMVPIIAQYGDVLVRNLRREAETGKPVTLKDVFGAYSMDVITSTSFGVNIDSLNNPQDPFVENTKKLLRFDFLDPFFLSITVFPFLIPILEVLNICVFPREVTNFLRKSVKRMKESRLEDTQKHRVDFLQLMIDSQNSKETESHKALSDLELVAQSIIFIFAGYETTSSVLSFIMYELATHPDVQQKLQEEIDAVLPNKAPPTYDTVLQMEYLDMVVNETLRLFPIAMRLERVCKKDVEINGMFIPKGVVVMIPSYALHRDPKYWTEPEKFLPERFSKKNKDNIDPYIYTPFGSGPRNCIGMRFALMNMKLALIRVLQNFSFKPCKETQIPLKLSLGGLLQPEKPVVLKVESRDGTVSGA
Nucleotide-binding oligomerization domain-containing protein 2, sequence (Q9HC29 whole entry, the tested form may be a part): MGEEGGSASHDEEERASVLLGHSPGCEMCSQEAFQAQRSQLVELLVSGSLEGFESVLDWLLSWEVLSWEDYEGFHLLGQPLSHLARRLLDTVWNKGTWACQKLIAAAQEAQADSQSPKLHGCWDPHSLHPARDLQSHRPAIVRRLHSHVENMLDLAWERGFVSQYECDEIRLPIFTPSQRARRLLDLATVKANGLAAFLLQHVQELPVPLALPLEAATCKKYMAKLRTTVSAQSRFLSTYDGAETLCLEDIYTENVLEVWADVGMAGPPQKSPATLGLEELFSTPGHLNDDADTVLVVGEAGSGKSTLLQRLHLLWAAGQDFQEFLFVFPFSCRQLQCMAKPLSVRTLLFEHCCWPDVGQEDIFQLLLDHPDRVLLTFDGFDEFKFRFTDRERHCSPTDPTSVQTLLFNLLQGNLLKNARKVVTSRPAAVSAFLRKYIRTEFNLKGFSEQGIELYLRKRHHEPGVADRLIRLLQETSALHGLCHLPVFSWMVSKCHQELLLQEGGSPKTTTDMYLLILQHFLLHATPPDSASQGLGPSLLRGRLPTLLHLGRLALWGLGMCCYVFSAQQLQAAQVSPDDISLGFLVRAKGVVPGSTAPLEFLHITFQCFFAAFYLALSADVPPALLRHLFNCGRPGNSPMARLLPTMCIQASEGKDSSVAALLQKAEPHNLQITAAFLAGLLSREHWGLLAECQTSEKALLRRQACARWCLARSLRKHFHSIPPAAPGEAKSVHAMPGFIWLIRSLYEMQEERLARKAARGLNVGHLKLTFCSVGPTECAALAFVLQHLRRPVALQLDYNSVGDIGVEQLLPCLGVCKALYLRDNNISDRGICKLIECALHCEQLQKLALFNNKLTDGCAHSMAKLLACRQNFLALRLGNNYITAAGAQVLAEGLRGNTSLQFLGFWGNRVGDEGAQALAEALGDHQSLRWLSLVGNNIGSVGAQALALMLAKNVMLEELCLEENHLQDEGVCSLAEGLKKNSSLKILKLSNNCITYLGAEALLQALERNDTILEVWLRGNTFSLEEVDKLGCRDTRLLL

Compound: O=C(NCCc1cccs1)c1ccc(Cl)c(Cl)c1
- AC50 (HeLa): 44.2 µM (active)

Compound: Cc1ccc(C(=O)Nc2ncccc2S(=O)(=O)c2ccccc2)cc1
- AC50 (HeLa): > 350 µM (inactive)

Compound: CC/C(=C(\c1ccc(O)cc1)c1ccc(OCCN(C)C)cc1)c1ccccc1 [AFIMOXIFENE]
- AC50 (Cytochrome P450 3A4): 25.1 µM (inconclusive)
- CC50 [1]: 16.6 µM (active)
- IC50 [2]: > 20 µM (inactive)
- CC50 (Vero): 19.4 µM (active)

Compound: CC(C)CNC(=O)c1c(N)n(/N=C/c2ccccn2)c2nc3ccccc3nc12
- IC50 (Estrogen receptor): 15.9 µM (active)

Compound: COc1cc2c(C)nc3onc(-c4ccccc4)c3c2cc1OC
- IC50 (Fatty acid synthase [3]): 19.4 µM (active)
- IC50 (Fatty acid synthase [4]): 7.51 µM (active)

Compound: CC(=O)C1=C(O)C=C2Oc3c(C(C)=O)c(O)c(C)c(O)c3[C@]2(C)C1=O [(-)-USNIC ACID]
- AC50 (Cytochrome P450 3A4): 31.6 µM (inconclusive)

Compound: CCCCCCOc1ccc(CN2CCN(C)CC2)cc1
- EC50 [5]: 4.32 µM (active)
- AC50 (INS1): 4.04 µM (active)
- EC50 [6]: < 0.1 µM (active)
- EC50 (cells): 0.076 µM (active)

Compound: C[C@H]1CN([C@@H](C)CO)C(=O)Cc2cc(NC(=O)Nc3ccc(C(F)(F)F)cc3)ccc2O[C@@H]1CN(C)Cc1ccc(C(F)(F)F)cc1
- AC50 [7]: 5.04 µM (active)

Compound: C[C@@H]1CCCCO[C@@H](CN(C)CC2CCCCC2)[C@@H](C)CN([C@H](C)CO)C(=O)c2cc(NS(=O)(=O)c3ccc(Cl)cc3)ccc2O1
- AC50 [7]: 2.18 µM (active)

Compound: Cc1c(-c2cc(Br)ccc2O)nc2cc3c(cc2c1C)OCO3
- AC50 [8]: 57.5 µM (active)

Compound: COc1ccccc1NC(=O)CSc1nc2sc(C)c(C)c2c(=O)n1C
- IC50 (HEK293 [9]): > 20 µM (inactive)
- IC50 (HEK293 [10]): 8.8 µM (active)
- IC50 (HEK293 [11]): > 20 µM (inactive)
- IC50 (HEK293 [12]): 12.7 µM (active)
- EC50 [13]: > 20 µM (inactive)
- EC50 (HEK293 [14]): > 20 µM (inactive)

Compound: C[C@@H]1CN([C@@H](C)CO)C(=O)Cc2cc(NC(=O)Cn3cnnn3)ccc2O[C@H]1CN(C)Cc1ccc2c(c1)OCO2
- AC50 [15]: 10.5 µM (active)

Compound: COc1ccccc1CN1CC(C(=O)NCCN(C)CCc2ccccc2)CCC1=O (stereo not given)
- EC50 [5]: > 60 µM (not active)
- EC50 [6]: < 0.1 µM (active)
- EC50 (cells): 0.061 µM (active)

Compound: Fc1ccc(F)c(CNc2ncnc3cc(Cl)ccc23)c1
- IC50 (HEK293 [9]): > 20 µM (inactive)
- IC50 (HEK293 [10]): 12.7 µM (inactive)
- IC50 (HEK293 [11]): 11.9 µM (active)
- IC50 (HEK293 [12]): 6.42 µM (active)
- EC50 [13]: > 20 µM (inactive)
- EC50 (HEK293 [14]): 9.76 µM (active)

Compound: Cc1nc2ccc([N+](=O)[O-])cc2c(=O)n1Cc1ccc(Br)cc1
- IC50 (Fatty acid synthase [3]): 0.719 µM (active)
- IC50 (Fatty acid synthase [4]): 0.623 µM (active)
